# Tested on: HCT116
# Assay: In vitro cytotoxicity measured by the cell colony formation assay
# Type: cell-based
# Details: HCT116 cells; drug concentration producing 50% inhibition of colony formation; 72 h with drug at 37° C., colonies counted after 7 days; read-out: IN VITRO ID 50 (nm) HCT116
# Protocol: Four hundred cells (HCT116) were plated in 60 mm Petri dishes containing 2.7 mL of medium (modified McCoy's 5a medium containing 10% fetal bovine serum and 100 units/mL penicillin and 100 µg/mL streptomycin). The cells were incubated in a CO2 incubator at 37° C. for 5 h for attachment to the bottom of Petri dishes. The compounds identified in Example 2 were made up fresh in medium at ten times the final concentration, and then 0.3 mL of this stock solution was added to the 2.7 mL of medium in the dish. The cells were then incubated with drugs for 72 h at 37° C. At the end of incubation the drug-containing media were decanted, the dishes were rinsed with 4 mL of Hank's Balance Salt Solution (HBSS), 5 mL of fresh medium was added, and the dishes were returned to the incubator for colony formation. The cell colonies were counted using a colony counter after incubation for 7 days.
row,SMILES,IC50
1,COC(=O)O[C@H]1C[C@H]2OC[C@@]2(OC(C)=O)C2[C@H](OC(=O)c3ccccc3)[C@]3(O)C[C@H](OC(=O)[C@H](O)[C@@H](NC(=O)C=C(C)C)c4cccs4)C(C)=C([C@@H](O)C(=O)[C@@]21C)C3(C)C (stereo partly drawn) [Compound 4244],< 1 nM
2,COC(=O)O[C@H]1C[C@H]2OC[C@@]2(OC(C)=O)C2[C@H](OC(=O)c3ccccc3)[C@]3(O)C[C@H](OC(=O)[C@H](O)[C@@H](NC(=O)OC(C)C)c4cccs4)C(C)=C([C@@H](O)C(=O)[C@@]21C)C3(C)C (stereo partly drawn) [Compound 4144],< 1 nM
3,COC(=O)O[C@H]1C[C@H]2OC[C@@]2(OC(C)=O)C2[C@H](OC(=O)c3ccccc3)[C@]3(O)C[C@H](OC(=O)[C@H](O)[C@H](C=C(C)C)NC(=O)OCC(C)C)C(C)=C([C@@H](O)C(=O)[C@@]21C)C3(C)C (stereo partly drawn) [Compound 4644],< 10 nM
4,C/C=C/C(=O)N[C@@H](c1ccsc1)[C@@H](O)C(=O)O[C@H]1C[C@@]2(O)[C@@H](OC(=O)c3ccccc3)C3[C@](C)(C(=O)[C@H](O)C(=C1C)C2(C)C)[C@@H](OC(=O)OCC)C[C@H]1OC[C@@]31OC(C)=O (stereo partly drawn) [Compound 4999],< 1 nM
5,CCC(C)(C)OC(=O)N[C@@H](c1ccco1)[C@@H](O)C(=O)O[C@H]1C[C@@]2(O)[C@@H](OC(=O)c3ccccc3)C3[C@](C)(C(=O)[C@H](O)C(=C1C)C2(C)C)[C@@H](OC(=O)OCc1ccccc1)C[C@H]1OC[C@@]31OC(C)=O (stereo partly drawn) [Compound 6246],< 1 nM
6,C/C=C/C(=O)N[C@@H](c1ccoc1)[C@@H](O)C(=O)O[C@H]1C[C@@]2(O)[C@@H](OC(=O)c3ccccc3)C3[C@](C)(C(=O)[C@H](O)C(=C1C)C2(C)C)[C@@H](OC(=O)OC)C[C@H]1OC[C@@]31OC(C)=O (stereo partly drawn) [Compound 4877],< 1 nM
7,CCOC(=O)O[C@H]1C[C@H]2OC[C@@]2(OC(C)=O)C2[C@H](OC(=O)c3ccccc3)[C@]3(O)C[C@H](OC(=O)[C@H](O)[C@@H](NC(=O)OC(C)(C)C)C4CC4)C(C)=C([C@@H](O)C(=O)[C@@]21C)C3(C)C (stereo partly drawn) [Compound 5165],< 1 nM
8,CC(=O)O[C@@]12CO[C@@H]1C[C@H](OC(=O)OCc1ccccc1)[C@@]1(C)C(=O)[C@H](O)C3=C(C)[C@@H](OC(=O)[C@H](O)[C@@H](NC(=O)C=C(C)C)c4ccco4)C[C@@](O)([C@@H](OC(=O)c4ccccc4)C12)C3(C)C (stereo partly drawn) [Compound 5466],< 1 nM
9,C/C=C/C(=O)N[C@@H](c1ccco1)[C@@H](O)C(=O)O[C@H]1C[C@@]2(O)[C@@H](OC(=O)c3ccccc3)C3[C@](C)(C(=O)[C@H](O)C(=C1C)C2(C)C)[C@@H](OC(=O)OCC)C[C@H]1OC[C@@]31OC(C)=O (stereo partly drawn) [Compound 4818],< 1 nM
10,COC(=O)O[C@H]1C[C@H]2OC[C@@]2(OC(C)=O)C2[C@H](OC(=O)c3ccccc3)[C@]3(O)C[C@H](OC(=O)[C@H](O)[C@@H](NC(=O)OCC(C)C)c4cccs4)C(C)=C([C@@H](O)C(=O)[C@@]21C)C3(C)C (stereo partly drawn) [Compound 4355],< 1 nM
11,CCOC(=O)O[C@H]1C[C@H]2OC[C@@]2(OC(C)=O)C2[C@H](OC(=O)c3ccccc3)[C@]3(O)C[C@H](OC(=O)[C@H](O)[C@@H](NC(=O)OC(C)(C)C)c4cccs4)C(C)=C([C@@H](O)C(=O)[C@@]21C)C3(C)C (stereo partly drawn) [Compound 4234],< 1 nM
12,CCOC(=O)O[C@H]1C[C@H]2OC[C@@]2(OC(C)=O)C2[C@H](OC(=O)c3ccccc3)[C@]3(O)C[C@H](OC(=O)[C@H](O)[C@@H](NC(=O)OC(C)C)c4cccs4)C(C)=C([C@@H](O)C(=O)[C@@]21C)C3(C)C (stereo partly drawn) [Compound 4151],< 1 nM
13,CCOC(=O)O[C@H]1C[C@H]2OC[C@@]2(OC(C)=O)C2[C@H](OC(=O)c3ccccc3)[C@]3(O)C[C@H](OC(=O)[C@H](O)[C@@H](NC(=O)c4ccccc4)c4cccs4)C(C)=C([C@@H](O)C(=O)[C@@]21C)C3(C)C (stereo partly drawn) [Compound 4188],< 10 nM
14,CCOC(=O)O[C@H]1C[C@H]2OC[C@@]2(OC(C)=O)C2[C@H](OC(=O)c3ccccc3)[C@]3(O)C[C@H](OC(=O)[C@H](O)[C@@H](NC(=O)OCC(C)C)c4ccco4)C(C)=C([C@@H](O)C(=O)[C@@]21C)C3(C)C (stereo partly drawn) [Compound 4696],< 1 nM
15,C/C=C/C(=O)N[C@@H](c1cccs1)[C@@H](O)C(=O)O[C@H]1C[C@@]2(O)[C@@H](OC(=O)c3ccccc3)C3[C@](C)(C(=O)[C@H](O)C(=C1C)C2(C)C)[C@@H](OC(=O)OC)C[C@H]1OC[C@@]31OC(C)=O (stereo partly drawn) [Compound 4766],< 1 nM
16,COC(=O)O[C@H]1C[C@H]2OC[C@@]2(OC(C)=O)C2[C@H](OC(=O)c3ccccc3)[C@]3(O)C[C@H](OC(=O)[C@H](O)[C@H](C=C(C)C)NC(=O)OC(C)(C)C)C(C)=C([C@@H](O)C(=O)[C@@]21C)C3(C)C (stereo partly drawn) [Compound 4484],< 1 nM
17,COC(=O)O[C@H]1C[C@H]2OC[C@@]2(OC(C)=O)C2[C@H](OC(=O)c3ccccc3)[C@]3(O)C[C@H](OC(=O)[C@H](O)[C@@H](NC(=O)c4ccccc4)c4cccs4)C(C)=C([C@@H](O)C(=O)[C@@]21C)C3(C)C (stereo partly drawn) [Compound 4411],< 1 nM

row,SMILES,IC50
1,C/C=C/C(=O)N[C@@H](c1ccoc1)[C@@H](O)C(=O)O[C@H]1C[C@@]2(O)[C@@H](OC(=O)c3ccccc3)C3[C@](C)(C(=O)[C@H](O)C(=C1C)C2(C)C)[C@@H](OC(=O)OCC)C[C@H]1OC[C@@]31OC(C)=O (stereo partly drawn) [Compound 4904],< 10 nM
2,C/C=C/C(=O)N[C@@H](c1cccs1)[C@@H](O)C(=O)O[C@H]1C[C@@]2(O)[C@@H](OC(=O)c3ccccc3)C3[C@](C)(C(=O)[C@H](O)C(=C1C)C2(C)C)[C@@H](OC(=O)OCc1ccccc1)C[C@H]1OC[C@@]31OC(C)=O (stereo partly drawn) [Compound 6566],< 10 nM
3,CCOC(=O)O[C@H]1C[C@H]2OC[C@@]2(OC(C)=O)C2[C@H](OC(=O)c3ccccc3)[C@]3(O)C[C@H](OC(=O)[C@H](O)[C@@H](NC(=O)OCC(C)C)C4CC4)C(C)=C([C@@H](O)C(=O)[C@@]21C)C3(C)C (stereo partly drawn) [Compound 5225],< 10 nM
4,CCOC(=O)O[C@H]1C[C@H]2OC[C@@]2(OC(C)=O)C2[C@H](OC(=O)c3ccccc3)[C@]3(O)C[C@H](OC(=O)[C@H](O)[C@H](C=C(C)C)NC(=O)OC(C)(C)C)C(C)=C([C@@H](O)C(=O)[C@@]21C)C3(C)C (stereo partly drawn) [Compound 4524],< 1 nM
5,COC(=O)O[C@H]1C[C@H]2OC[C@@]2(OC(C)=O)C2[C@H](OC(=O)c3ccccc3)[C@]3(O)C[C@H](OC(=O)[C@H](O)[C@@H](NC(=O)OCC(C)C)c4ccsc4)C(C)=C([C@@H](O)C(=O)[C@@]21C)C3(C)C (stereo partly drawn) [Compound 4674],< 1 nM
6,CC(=O)O[C@@]12CO[C@@H]1C[C@H](OC(=O)OCc1ccccc1)[C@@]1(C)C(=O)[C@H](O)C3=C(C)[C@@H](OC(=O)[C@H](O)[C@@H](NC(=O)OC(C)(C)C)c4ccco4)C[C@@](O)([C@@H](OC(=O)c4ccccc4)C12)C3(C)C (stereo partly drawn) [Compound 5433],< 1 nM
7,CCOC(=O)O[C@H]1C[C@H]2OC[C@@]2(OC(C)=O)C2[C@H](OC(=O)c3ccccc3)[C@]3(O)C[C@H](OC(=O)[C@H](O)[C@@H](NC(=O)OC(C)(C)C)c4ccsc4)C(C)=C([C@@H](O)C(=O)[C@@]21C)C3(C)C (stereo partly drawn) [Compound 4500],< 1 nM
8,COC(=O)O[C@H]1C[C@H]2OC[C@@]2(OC(C)=O)C2[C@H](OC(=O)c3ccccc3)[C@]3(O)C[C@H](OC(=O)[C@H](O)[C@@H](NC(=O)c4ccco4)c4cccs4)C(C)=C([C@@H](O)C(=O)[C@@]21C)C3(C)C (stereo partly drawn) [Compound 4222],< 1 nM
9,C/C=C/C(=O)N[C@@H](c1ccsc1)[C@@H](O)C(=O)O[C@H]1C[C@@]2(O)[C@@H](OC(=O)c3ccccc3)C3[C@](C)(C(=O)[C@H](O)C(=C1C)C2(C)C)[C@@H](OC(=O)OC)C[C@H]1OC[C@@]31OC(C)=O (stereo partly drawn) [Compound 4969],< 1 nM
10,COC(=O)O[C@H]1C[C@H]2OC[C@@]2(OC(C)=O)C2[C@H](OC(=O)c3ccccc3)[C@]3(O)C[C@H](OC(=O)[C@H](O)[C@@H](NC(=O)OCC(C)C)c4ccoc4)C(C)=C([C@@H](O)C(=O)[C@@]21C)C3(C)C (stereo partly drawn) [Compound 4584],< 10 nM
11,CCOC(=O)O[C@H]1C[C@H]2OC[C@@]2(OC(C)=O)C2[C@H](OC(=O)c3ccccc3)[C@]3(O)C[C@H](OC(=O)[C@H](O)[C@@H](NC(=O)OCC(C)C)c4ccoc4)C(C)=C([C@@H](O)C(=O)[C@@]21C)C3(C)C (stereo partly drawn) [Compound 4624],< 10 nM
12,CCOC(=O)O[C@H]1C[C@H]2OC[C@@]2(OC(C)=O)C2[C@H](OC(=O)c3ccccc3)[C@]3(O)C[C@H](OC(=O)[C@H](O)[C@@H](NC(=O)c4cccs4)c4cccs4)C(C)=C([C@@H](O)C(=O)[C@@]21C)C3(C)C (stereo partly drawn) [Compound 4455],< 1 nM
13,CCOC(=O)O[C@H]1C[C@H]2OC[C@@]2(OC(C)=O)C2[C@H](OC(=O)c3ccccc3)[C@]3(O)C[C@H](OC(=O)[C@H](O)[C@@H](NC(=O)OCC(C)C)c4cccs4)C(C)=C([C@@H](O)C(=O)[C@@]21C)C3(C)C (stereo partly drawn) [Compound 4363],< 10 nM
14,COC(=O)O[C@H]1C[C@H]2OC[C@@]2(OC(C)=O)C2[C@H](OC(=O)c3ccccc3)[C@]3(O)C[C@H](OC(=O)[C@H](O)[C@@H](NC(=O)OC(C)(C)C)c4ccco4)C(C)=C([C@@H](O)C(=O)[C@@]21C)C3(C)C (stereo partly drawn) [Compound 4533],< 1 nM
15,COC(=O)O[C@H]1C[C@H]2OC[C@@]2(OC(C)=O)C2[C@H](OC(=O)c3ccccc3)[C@]3(O)C[C@H](OC(=O)[C@H](O)[C@@H](NC(=O)OCC(C)C)c4ccco4)C(C)=C([C@@H](O)C(=O)[C@@]21C)C3(C)C (stereo partly drawn) [Compound 4656],< 1 nM
16,COC(=O)O[C@H]1C[C@H]2OC[C@@]2(OC(C)=O)C2[C@H](OC(=O)c3ccccc3)[C@]3(O)C[C@H](OC(=O)[C@H](O)[C@@H](NC(=O)c4cccs4)c4cccs4)C(C)=C([C@@H](O)C(=O)[C@@]21C)C3(C)C (stereo partly drawn) [Compound 4424],< 1 nM

# Reference: patent US7226944B2, “Taxanes having a C7 carbonate substituent” (FSU Research Foundation, Inc., priority 2000, dated 2007)
